PubChem BioAssay (NCI)
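Where inhibition never reached the appropriate level, the endpoint shown equals the highest concentration tested. Otherwise, values were interpolated linearly from a five-concentration, 48-hour dose response in 96-well plates. GI50 is the concentration that inhibits growth by half. TGI denotes the concentration required for complete inhibition of growth.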

Columns and labels:
Assay in all cases: NCI tumour cell line growth inhibition, 48 h
U251 CNS = system: U251 CNS
OVCAR-5 ovarian = system: OVCAR-5 ovarian
MDA-MB-435 = system: MDA-MB-435
ACHN renal = system: ACHN renal
K-562 leukemia = system: K-562 leukemia
SNB-75 CNS = system: SNB-75 CNS
SK-MEL-2 melanoma = system: SK-MEL-2 melanoma
BT-549 breast = system: BT-549 breast
HCT-15 colon = system: HCT-15 colon
NCI-H460 lung = system: NCI-H460 lung

SMILES	TGI (U251 CNS) [µM]	TGI (OVCAR-5 ovarian) [µM]	TGI (MDA-MB-435) [µM]	TGI (ACHN renal) [µM]	TGI (K-562 leukemia) [µM]	TGI (SNB-75 CNS) [µM]	TGI (SK-MEL-2 melanoma) [µM]	TGI (BT-549 breast) [µM]	TGI (HCT-15 colon) [µM]	GI50 (U251 CNS) [µM]	GI50 (OVCAR-5 ovarian) [µM]	GI50 (MDA-MB-435) [µM]	GI50 (ACHN renal) [µM]	GI50 (K-562 leukemia) [µM]	GI50 (SK-MEL-2 melanoma) [µM]	GI50 (BT-549 breast) [µM]	GI50 (NCI-H460 lung) [µM]	TGI (NCI-H460 lung) [µM]	GI50 (HCT-15 colon) [µM]	GI50 (SNB-75 CNS) [µM]
Cc1ccc(C(=O)Nc2ccc(CP(=O)(O)O)cc2)cc1NC(=O)c1cccc(N)c1	> 100	> 100	> 100	> 100	> 100	> 100	> 100	> 100	> 100											
COc1ccc2c3c(Nc4cccc(/C(C)=N\O)c4)[nH]c4ccccc4c-3c(N=O)c2c1	> 100	96.9	> 100	91.7	> 100		67.7	> 100	39.6	33.3	26.5	30.9	33.3	31.6	19.7	47	33.6	> 100	18	
O=C1C=CC2OC(c3ccccc3)C(O)C2O1 (centres undefined)	22.4	21.5			59.7	31	6.63		14.4									16.2		
O=C(Nc1ccc(Cl)cc1C(F)(F)F)C(=O)C1CCCS1(=O)=O (centres undefined)	> 100	> 100		> 100	> 100	> 100			> 100									> 100		
CCOC(=O)CC1COc2ccc3c(c21)OCO3 (centres undefined)	> 100	> 100		> 100	> 100	> 100	> 100		> 100									> 100		
COc1cc(OC)cc(-c2ccc(-c3ccc(C(=N)N)cn3)o2)c1	3.02	3.2	2.99	3.16	2.98	2.85	3.72			1.62	1.74	1.55	1.71	1.32	2.01		1.63	3.16		1.48
O=C1c2ccccc2C(=O)N1CCSCC(CO)SCCN1C(=O)c2ccccc2C1=O (centres undefined)	> 100	> 100	> 100	> 100	> 100		> 100	> 100	> 100									> 100		
CC(CCC[C@H](C)CO)[C@H]1[C@@H](O)C(O)C2[C@@H]3C[C@@H](O)C4(O)C[C@@H](O)CC[C@]4(C)C3CC[C@@]21C (some centres undefined)	> 100			> 100	> 100	> 100	> 100		> 100									> 100		
CC(=O)OC(CC1(C)C(C)CCC23COC(=O)C2=CCCC31)c1ccoc1 (centres undefined)	29.3	67.4		> 100	> 100	78.5	49.7		56.2									> 100		
CCOC(=O)Cn1c2ccccc2c(=O)c2cc(C)c(C)c(C#N)c21	> 100	> 100		> 100		66.1	> 100		> 100									> 100		
O=[N+]([O-])C(/C=C(\Cl)[N+](=O)[O-])=C1Nc2ccccc2N1	> 100		> 100	> 100	> 100	> 100		> 100	> 100									> 100		
CC(CC(N)C(=O)O)C(=O)O (centres undefined)	> 100	> 100	> 100	> 100	> 100		> 100	> 100	> 100									> 100		
COC(=O)N1CC(=O)C(C(=O)NC23CC4CC(CC(C4)C2)C3)C1 (centres undefined)	> 100	> 100	> 100	> 100	> 100		> 100	> 100	> 100									> 100		
S=C(NCCc1ccccn1)N/N=C/c1ccccn1	> 100	> 100	> 100	4.82		> 100	9.9		> 100									4.66		
CCc1c2c(cc3c1CC1(C3)Cc3cc4c(c(C(=O)OC)c3C1)CCCC4)CCCC2 (centres undefined)	> 100	> 100	> 100	> 100	> 100		> 100		> 100											
O=P1(c2ccccc2)c2ccccc2-c2ccccc21			> 100		> 100	> 100	> 100	> 100	> 100											
C=CCNC(=S)N1CC(C)C(=O)Nc2cc(Cl)ccc21 (centres undefined)	> 100	> 100		> 100	> 100	> 100	> 100		> 100									> 100		
COc1cc2c3cc1Oc1c(O)c(OC)cc4c1C(Cc1ccc(O)c(c1)Oc1ccc(cc1)CC3N(C)CC2)N(C)CC4 (centres undefined)	27.3	38.4		33.7	10.3	35.3	38.4		23.8									28.4		
COc1cc(C2C3=C(COC3=O)Oc3cc4c(cc32)OCO4)ccc1O (centres undefined)	> 100	> 100		> 94.7	> 100	0.652	> 100	> 100	> 100									> 100		
NS(=O)(=O)c1nnc(NC(=O)C23CC4CC(CC(C4)C2)C3)s1	> 100	> 100	> 100	> 100	> 100		> 100	> 100	> 100									> 100		
CCOC(=O)C(=O)C=P(c1ccccc1)(c1ccccc1)c1ccccc1	> 100	> 100		> 100	> 100	> 100	> 100		> 100									> 100		
OC1c2ccccc2CCC1CN1CCN(CCOC(c2ccc(F)cc2)c2ccc(F)cc2)CC1 (centres undefined)	28.3		80.1	> 100	27.5	70.5	36.3	25.1	23.4									48		
